One block for each compound: values may come before it.
Assays:
[1] = molecular target: T1, Mitogen-activated protein kinase kinase kinase 5 (Homo sapiens) (UniProt Q99683); experiment: Selectivity interaction (ActivX KiNativ screen (kinase selectivity in THP-1 cell lysates)) EUB0000639a MAP3K5; assay type: subcellular; conditions: lysate, at 5 µM
T1 sequence (whole entry): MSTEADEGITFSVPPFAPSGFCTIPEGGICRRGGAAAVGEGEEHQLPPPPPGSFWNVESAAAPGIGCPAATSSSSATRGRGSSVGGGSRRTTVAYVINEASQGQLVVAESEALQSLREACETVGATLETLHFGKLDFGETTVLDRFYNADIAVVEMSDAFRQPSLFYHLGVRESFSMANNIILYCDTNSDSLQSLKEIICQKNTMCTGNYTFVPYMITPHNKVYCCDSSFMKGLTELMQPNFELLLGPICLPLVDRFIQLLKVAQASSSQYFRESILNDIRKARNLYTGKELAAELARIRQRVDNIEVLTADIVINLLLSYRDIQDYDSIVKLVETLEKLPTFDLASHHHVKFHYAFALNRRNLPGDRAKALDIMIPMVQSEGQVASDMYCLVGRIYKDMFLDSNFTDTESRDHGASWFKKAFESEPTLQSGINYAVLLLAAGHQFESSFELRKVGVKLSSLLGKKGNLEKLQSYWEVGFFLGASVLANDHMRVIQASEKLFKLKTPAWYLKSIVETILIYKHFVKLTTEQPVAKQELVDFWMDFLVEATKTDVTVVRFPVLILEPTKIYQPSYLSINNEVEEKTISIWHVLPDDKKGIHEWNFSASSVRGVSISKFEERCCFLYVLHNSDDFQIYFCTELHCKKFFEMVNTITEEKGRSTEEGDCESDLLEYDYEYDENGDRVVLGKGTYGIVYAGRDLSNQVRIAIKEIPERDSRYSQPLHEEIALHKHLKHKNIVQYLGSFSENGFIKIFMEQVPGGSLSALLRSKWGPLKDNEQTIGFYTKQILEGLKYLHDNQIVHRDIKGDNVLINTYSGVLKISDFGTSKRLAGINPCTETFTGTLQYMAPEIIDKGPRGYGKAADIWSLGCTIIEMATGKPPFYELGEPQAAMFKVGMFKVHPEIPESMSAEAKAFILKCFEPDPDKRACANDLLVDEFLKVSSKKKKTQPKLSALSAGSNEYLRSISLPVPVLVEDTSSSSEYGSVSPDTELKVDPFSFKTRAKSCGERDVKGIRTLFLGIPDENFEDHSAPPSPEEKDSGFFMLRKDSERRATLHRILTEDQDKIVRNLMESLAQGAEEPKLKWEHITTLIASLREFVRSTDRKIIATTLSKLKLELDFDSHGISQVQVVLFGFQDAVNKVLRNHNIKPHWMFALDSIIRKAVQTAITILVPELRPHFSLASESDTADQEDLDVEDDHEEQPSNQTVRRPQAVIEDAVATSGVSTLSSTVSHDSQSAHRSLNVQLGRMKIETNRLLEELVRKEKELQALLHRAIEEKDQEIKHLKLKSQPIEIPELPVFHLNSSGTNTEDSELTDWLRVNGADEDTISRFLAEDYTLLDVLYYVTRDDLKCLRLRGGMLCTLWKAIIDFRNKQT

[2] = molecular target: T2, Serine/threonine-protein kinase RIO1 (Homo sapiens) (UniProt Q9BRS2); experiment: Selectivity interaction (KinomeScan (DiscoverX)) EUB0001619a RIOK1; conditions: at 1 µM
T2 sequence (whole entry): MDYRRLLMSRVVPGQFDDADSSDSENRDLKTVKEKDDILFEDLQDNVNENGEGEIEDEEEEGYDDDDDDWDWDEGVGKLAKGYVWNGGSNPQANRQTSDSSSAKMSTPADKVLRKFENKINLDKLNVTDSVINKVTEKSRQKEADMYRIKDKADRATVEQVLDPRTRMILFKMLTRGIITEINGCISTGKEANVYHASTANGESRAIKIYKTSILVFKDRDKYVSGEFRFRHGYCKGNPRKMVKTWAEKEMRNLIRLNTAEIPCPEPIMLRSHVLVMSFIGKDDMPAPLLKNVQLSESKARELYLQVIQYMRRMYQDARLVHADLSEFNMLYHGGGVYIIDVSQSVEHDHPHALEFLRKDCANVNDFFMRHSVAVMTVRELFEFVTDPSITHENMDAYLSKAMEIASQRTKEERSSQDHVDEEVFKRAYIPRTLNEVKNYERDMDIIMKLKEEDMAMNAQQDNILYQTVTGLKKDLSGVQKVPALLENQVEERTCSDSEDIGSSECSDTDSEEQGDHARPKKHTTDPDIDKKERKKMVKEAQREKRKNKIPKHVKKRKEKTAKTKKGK

[3] = molecular target: T3, Alpha-2C adrenergic receptor (Homo sapiens) (UniProt P18825); experiment: Selectivity interaction (Panel of kinases, GPCRs, ion channels and transporters (enzymatic assay)) EUB0000223bCl ADRA2C
T3 sequence (whole entry): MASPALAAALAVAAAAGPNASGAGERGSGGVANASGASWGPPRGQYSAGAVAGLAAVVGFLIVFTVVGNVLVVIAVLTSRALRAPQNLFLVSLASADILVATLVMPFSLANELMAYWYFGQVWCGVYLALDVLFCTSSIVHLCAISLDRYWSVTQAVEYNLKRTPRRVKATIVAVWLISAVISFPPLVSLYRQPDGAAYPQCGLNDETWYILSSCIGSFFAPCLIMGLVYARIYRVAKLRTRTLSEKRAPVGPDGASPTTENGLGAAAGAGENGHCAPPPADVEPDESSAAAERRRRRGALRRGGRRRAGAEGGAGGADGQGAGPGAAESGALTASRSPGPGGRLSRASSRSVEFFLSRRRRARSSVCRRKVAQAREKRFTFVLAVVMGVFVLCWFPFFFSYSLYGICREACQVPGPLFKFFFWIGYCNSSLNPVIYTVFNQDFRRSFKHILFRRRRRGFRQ

% of inhibition [1]: -16.2%
Compound: CC[C@@H]1[C@H](F)C(=O)N[C@@H]1COc1nccc2cc(C(N)=O)c(OC)cc12 [ZIMLOVISERTIB]

Compound: N#Cc1cccc(-c2c[nH]c3ncnc(N4CCOCC4)c23)c1
% of control [2]: 38%

Compound: COc1cc(C(=O)N2CC[C@@H](O)[C@@H](N)C2)cc2nc(-c3cc4ccccc4n3CC3CC3)n(C)c12
pXC50 [3]: < 4.5 M

From ChEMBL document CHEMBL5465560, “Selectivity Literature for EUbOPEN Chemogenomic Library” (2024)
